What was measured:
[1] = molecular target: Serotonin 3 (5-HT3) receptor; test: Potency to 5-hydroxytryptamine 3 receptor using [3H]GR-65630 as radioligand in rat cortex
[2] = molecular target: Serotonin 3 (5-HT3) receptor; test: (§1) Potency at neuronal 5-hydroxytryptamine 3 receptor in the rabbit heart; type: protein-complex assay, Oryctolagus cuniculus
[3] = molecular target: Serotonin 3 (5-HT3) receptor; type: protein-complex assay, Oryctolagus cuniculus
[4] = molecular target: Serotonin 3 (5-HT3) receptor; test: Potency at neuronal 5-hydroxytryptamine 3 receptors in the rabbit heart; type: protein-complex assay, Oryctolagus cuniculus
[5] = molecular target: Serotonin 3 (5-HT3) receptor; test: Potency to 5-hydroxytryptamine 3 receptor entirely in guinea pig ileum; type: tissue-based, Cavia porcellus
[6] = molecular target: T1, Serotonin 3 receptor (5HT3) (Mus musculus) (UniProt Q9JHJ5+P23979); test: as §1; type: protein assay
[7] = molecular target: T2, Serotonin 3 (5-HT3) receptor (Rattus norvegicus, UniProt P35563+Q9JJ16); test: Binding affinity to 5-hydroxytryptamine 3 receptor using [3H]GR-65630 as radioligand in rat cortex
T2 sequence (P35563 whole entry): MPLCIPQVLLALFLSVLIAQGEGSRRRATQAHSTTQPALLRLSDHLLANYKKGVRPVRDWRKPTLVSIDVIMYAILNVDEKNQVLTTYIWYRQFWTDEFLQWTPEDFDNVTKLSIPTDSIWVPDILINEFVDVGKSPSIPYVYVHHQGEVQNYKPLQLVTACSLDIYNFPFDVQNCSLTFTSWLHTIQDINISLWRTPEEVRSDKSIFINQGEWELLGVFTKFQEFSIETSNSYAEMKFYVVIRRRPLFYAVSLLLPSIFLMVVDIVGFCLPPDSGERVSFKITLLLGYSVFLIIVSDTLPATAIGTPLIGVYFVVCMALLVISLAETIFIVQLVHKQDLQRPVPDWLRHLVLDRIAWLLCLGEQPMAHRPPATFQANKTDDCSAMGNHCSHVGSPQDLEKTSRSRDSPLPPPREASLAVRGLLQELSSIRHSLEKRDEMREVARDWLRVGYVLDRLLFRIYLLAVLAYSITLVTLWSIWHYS
T2 sequence (Q9JJ16 whole entry): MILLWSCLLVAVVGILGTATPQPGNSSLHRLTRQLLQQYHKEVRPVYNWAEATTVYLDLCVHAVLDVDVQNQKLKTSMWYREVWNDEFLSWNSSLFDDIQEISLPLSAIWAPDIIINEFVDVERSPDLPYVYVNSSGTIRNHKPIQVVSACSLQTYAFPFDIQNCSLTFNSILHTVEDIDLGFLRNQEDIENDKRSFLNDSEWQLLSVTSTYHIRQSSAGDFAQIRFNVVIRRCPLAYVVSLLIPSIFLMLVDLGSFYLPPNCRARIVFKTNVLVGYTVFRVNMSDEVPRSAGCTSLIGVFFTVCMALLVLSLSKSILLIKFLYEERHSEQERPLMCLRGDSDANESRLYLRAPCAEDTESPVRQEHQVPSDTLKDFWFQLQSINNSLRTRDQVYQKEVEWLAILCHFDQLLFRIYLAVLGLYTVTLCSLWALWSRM

[8] = molecular target: T2, Serotonin 3 (5-HT3) receptor; test: Binding affinity to 5-hydroxytryptamine 3 receptor using [3H]quipazine as radioligand in rat cortex
[9] = molecular target: T1, Serotonin 3 receptor (5HT3) (Mus musculus); test: Binding affinity towards 5-hydroxytryptamine 3 receptor was determined by using [3H]-ICS 205-930 as radioligand in mouse N1E 115 cells; type: cell-based

T1 sequence (P23979 whole entry, looked up): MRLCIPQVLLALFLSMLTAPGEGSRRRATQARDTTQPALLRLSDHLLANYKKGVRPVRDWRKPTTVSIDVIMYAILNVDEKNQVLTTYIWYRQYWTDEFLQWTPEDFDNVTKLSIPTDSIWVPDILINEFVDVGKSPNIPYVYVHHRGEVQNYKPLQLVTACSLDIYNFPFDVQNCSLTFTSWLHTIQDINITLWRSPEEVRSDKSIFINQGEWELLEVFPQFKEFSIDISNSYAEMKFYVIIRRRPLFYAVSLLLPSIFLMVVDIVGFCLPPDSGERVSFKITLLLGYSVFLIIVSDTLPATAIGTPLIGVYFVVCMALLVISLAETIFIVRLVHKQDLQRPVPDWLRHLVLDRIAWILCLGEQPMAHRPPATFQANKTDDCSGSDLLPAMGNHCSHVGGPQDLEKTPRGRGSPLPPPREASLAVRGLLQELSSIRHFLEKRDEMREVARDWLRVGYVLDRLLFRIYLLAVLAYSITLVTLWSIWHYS
T1 sequence (Q9JHJ5 whole entry, looked up): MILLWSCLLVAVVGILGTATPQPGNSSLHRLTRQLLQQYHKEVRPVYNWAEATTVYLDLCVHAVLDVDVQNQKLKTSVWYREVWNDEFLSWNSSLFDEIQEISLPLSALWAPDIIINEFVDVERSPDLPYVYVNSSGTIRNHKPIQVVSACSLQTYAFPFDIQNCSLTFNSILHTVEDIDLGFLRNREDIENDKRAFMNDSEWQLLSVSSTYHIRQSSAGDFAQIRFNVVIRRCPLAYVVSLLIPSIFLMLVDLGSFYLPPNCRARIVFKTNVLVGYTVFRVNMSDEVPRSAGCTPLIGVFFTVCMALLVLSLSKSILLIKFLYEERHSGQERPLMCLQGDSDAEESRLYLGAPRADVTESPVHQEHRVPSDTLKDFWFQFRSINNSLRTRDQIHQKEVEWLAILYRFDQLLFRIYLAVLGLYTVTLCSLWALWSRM

`Cc1[nH]cnc1CCC(=O)c1cn(C)c2ccccc12` was tested, and the “Log Ki” value [1] was -8.79.
Molecule `Cc1cc(C)cc(C(=O)OC2CC3CCC(C2)N3C)c1` (stereo not given) has a pA2 [2] of 9.
For `COc1cc(N)c(Cl)cc1C(=O)N[C@H]1CCN2CCC[C@@H]1C2`, the pA2 [3] was 8.5, the pA2 [4] was 8.9 and the pA2 [5] was 7.6.
`CN1C2CCC1CC(OC(=O)c1cn(C)c3ccc(F)cc13)C2` (stereo not given) was tested, and the pKD [6] was 9.8.
With `CN1[C@@H]2CC[C@H]1C[C@@H](OC(=O)c1c[nH]c3ccccc13)C2` [TROPISETRON] the Ki [7] was 3.16 nM, the Ki [8] was 0.603 nM and the pKD [9] was 9.09.
`O=C(c1c[nH]c2ccccc12)C1CCNCC1` was tested, and the pA2 [4] was 8.3.
Molecule `CN1[C@@H]2CC[C@H]1C[C@H](OC(=O)c1ccccc1)C2` has a pA2 [2] of 7.2.
Molecule `c1ccc2nc(N3CCNCC3)ccc2c1` [QUIPAZINE] has a Ki [7] of 1.41 nM, a Ki [8] of 1 nM and a pKD [9] of 8.69.
`CN1[C@@H]2CC[C@H]1C[C@@H](OC(=O)c1cc(Cl)cc(Cl)c1)C2` [BEMESETRON] was tested, and the Ki [7] was 55 nM and the pKD [9] was 8.21.
In the case of `C[N+]1(C)CCC(C(=O)c2c[nH]c3ccccc23)CC1.[I-]`, the pA2 [4] is reported as 9.2.
With `CN1CC(=O)C2CCC(OC(=O)c3c[nH]c4ccccc34)C1C2` (stereo not given) the pA2 [4] was 9.8.
For `Cc1nccn1CC1CCc2c(c3ccccc3n2C)C1=O` (stereo not given), the pKD [9] was 7.9.
For `COC(=O)[C@@H]1C2CCC(C[C@@H]1OC(=O)c1ccccc1)N2` (stereo not given in full), the pA2 [2] was 7.7.
Molecule `CCN(CC)CCNC(=O)c1cc(Cl)c(N)cc1OC` [METOCLOPRAMIDE] has a pA2 [4] of 7.3, a Ki [7] of 200 nM and a Ki [8] of 229 nM. For the same molecule, the pKD [9] was 6.65.
For `O=C(OC1CC2CCC(C1)N2)c1c[nH]c2ccccc12` (stereo not given), the pKD [9] was 9.14.

From ChEMBL document CHEMBL1124788, “Conformation-activity relationship study of 5-HT3 receptor antagonists and a definition of a model for this receptor site” (J Med Chem, 1990)
